Source: ChEMBL document CHEMBL4138236, “Trisubstituted barbiturates and thiobarbiturates: Synthesis and biological evaluation as xanthine oxidase inhibitors, antioxidants, antibacterial and anti-proliferative agents” (Eur J Med Chem, 2018)

Tested on: Klebsiella pneumoniae
Experiment: Antibacterial activity against Klebsiella pneumoniae ATCC 13883 after 24 hrs by broth microdilution method
Assay type: functional
Settings: ATCC 13883, 24 h
For `CC(=O)C1C(=O)N(C)C(=O)N(C)C1=O`, the MIC was over 200 µM. Molecule `O=C1NC(=O)C(=CNc2ccccc2C(=O)O)C(=O)N1` has an MIC of over 200 µM. Work on `CC(=O)C1C(=O)N(c2ccccc2)C(=S)N(c2ccccc2)C1=O` yielded an MIC of over 200 µM. In the case of `COc1ccc(C=C2C(=O)NC(=O)NC2=O)cc1`, the MIC is reported as over 200 µM. Molecule `COc1ccc(CC2C(=O)NC(=O)NC2=O)cc1` has an MIC of over 200 µM. With `CC(NNc1ccc([N+](=O)[O-])cc1[N+](=O)[O-])=C1C(=O)NC(=O)NC1=O` the MIC was over 200 µM.

Tested on: not listed separately
Experiment: Antioxidant activity assessed as DPPH radical scavenging activity at 30 uM after 20 mins by spectrophotometric method relative to control
Assay type: functional
Settings: not given
Molecule `Oc1ncnc2[nH]ncc12` [ALLOPURINOL] has an Activity of -6.02%. For `CC(=O)C1C(=O)N(C)C(=O)N(C)C1=O`, the Activity was -9.14%. For `O=C1NC(=O)C(=CNc2ccccc2C(=O)O)C(=O)N1`, the Activity was 1.75%. `CC(=O)C1C(=O)N(c2ccccc2)C(=S)N(c2ccccc2)C1=O` gave an Activity of -8.55%. `COc1ccc(C=C2C(=O)NC(=O)NC2=O)cc1` showed an Activity of -0.97%. `COc1ccc(CC2C(=O)NC(=O)NC2=O)cc1` showed an Activity of 10.4%. `CC(NNc1ccc([N+](=O)[O-])cc1[N+](=O)[O-])=C1C(=O)NC(=O)NC1=O` gave an Activity of 17.6%.

Tested on: Salmonella typhimurium
Experiment: Antibacterial activity against Salmonella typhimurium ATCC 13311 after 24 hrs by broth microdilution method
Assay type: functional, Salmonella enterica subsp. enterica serovar Typhimurium
Settings: Salmonella enterica, ATCC 13311, 24 h
For `CC(=O)C1C(=O)N(C)C(=O)N(C)C1=O`, the MIC was over 200 µM. Work on `O=C1NC(=O)C(=CNc2ccccc2C(=O)O)C(=O)N1` yielded an MIC of over 200 µM. With `CC(=O)C1C(=O)N(c2ccccc2)C(=S)N(c2ccccc2)C1=O` the MIC was over 200 µM. In the case of `COc1ccc(C=C2C(=O)NC(=O)NC2=O)cc1`, the MIC is reported as over 200 µM. In the case of `COc1ccc(CC2C(=O)NC(=O)NC2=O)cc1`, the MIC is reported as over 200 µM. `CC(NNc1ccc([N+](=O)[O-])cc1[N+](=O)[O-])=C1C(=O)NC(=O)NC1=O` showed an MIC of over 200 µM.

Tested on: Staphylococcus aureus
Experiment: Antibacterial activity against Staphylococcus aureus ATCC 25923 after 24 hrs by broth microdilution method
Assay type: functional
Settings: ATCC 25923, 24 h
In the case of `CC(=O)C1C(=O)N(C)C(=O)N(C)C1=O`, the MIC is reported as over 200 µM. `O=C1NC(=O)C(=CNc2ccccc2C(=O)O)C(=O)N1` gave an MIC of over 200 µM. `CC(=O)C1C(=O)N(c2ccccc2)C(=S)N(c2ccccc2)C1=O` gave an MIC of over 200 µM. For `COc1ccc(C=C2C(=O)NC(=O)NC2=O)cc1`, the MIC was over 200 µM. Work on `COc1ccc(CC2C(=O)NC(=O)NC2=O)cc1` yielded an MIC of over 200 µM. For `CC(NNc1ccc([N+](=O)[O-])cc1[N+](=O)[O-])=C1C(=O)NC(=O)NC1=O`, the MIC was over 200 µM.

Tested on: Pseudomonas aeruginosa
Experiment: Antibacterial activity against Pseudomonas aeruginosa ATCC 27853 after 24 hrs by broth microdilution method
Assay type: functional
Settings: ATCC 27853, 24 h
For `CC(=O)C1C(=O)N(C)C(=O)N(C)C1=O`, the MIC was over 200 µM. Work on `O=C1NC(=O)C(=CNc2ccccc2C(=O)O)C(=O)N1` yielded an MIC of over 200 µM. In the case of `CC(=O)C1C(=O)N(c2ccccc2)C(=S)N(c2ccccc2)C1=O`, the MIC is reported as over 200 µM. With `COc1ccc(C=C2C(=O)NC(=O)NC2=O)cc1` the MIC was over 200 µM. With `COc1ccc(CC2C(=O)NC(=O)NC2=O)cc1` the MIC was over 200 µM. Work on `CC(NNc1ccc([N+](=O)[O-])cc1[N+](=O)[O-])=C1C(=O)NC(=O)NC1=O` yielded an MIC of over 200 µM.

Tested on: not listed separately
Experiment: Antioxidant activity assessed as DPPH radical scavenging activity at 30 uM after 60 mins by spectrophotometric method relative to control
Assay type: functional
Settings: not given
Work on `Oc1ncnc2[nH]ncc12` [ALLOPURINOL] yielded an Activity of -5.41%. In the case of `CC(=O)C1C(=O)N(C)C(=O)N(C)C1=O`, the Activity is reported as -9.91%. Work on `O=C1NC(=O)C(=CNc2ccccc2C(=O)O)C(=O)N1` yielded an Activity of 1.98%. `CC(=O)C1C(=O)N(c2ccccc2)C(=S)N(c2ccccc2)C1=O` showed an Activity of -7.43%. Work on `COc1ccc(C=C2C(=O)NC(=O)NC2=O)cc1` yielded an Activity of 2.63%. For `COc1ccc(CC2C(=O)NC(=O)NC2=O)cc1`, the Activity was 14%. In the case of `CC(NNc1ccc([N+](=O)[O-])cc1[N+](=O)[O-])=C1C(=O)NC(=O)NC1=O`, the Activity is reported as 18.1%.

Tested on: Escherichia coli
Experiment: Antibacterial activity against Escherichia coli ATCC 25922 after 24 hrs by broth microdilution method
Assay type: functional
Settings: ATCC 25922, 24 h
In the case of `CC(=O)C1C(=O)N(C)C(=O)N(C)C1=O`, the MIC is reported as over 200 µM. For `O=C1NC(=O)C(=CNc2ccccc2C(=O)O)C(=O)N1`, the MIC was over 200 µM. `CC(=O)C1C(=O)N(c2ccccc2)C(=S)N(c2ccccc2)C1=O` gave an MIC of over 200 µM. With `COc1ccc(C=C2C(=O)NC(=O)NC2=O)cc1` the MIC was over 200 µM. `COc1ccc(CC2C(=O)NC(=O)NC2=O)cc1` gave an MIC of over 200 µM. In the case of `CC(NNc1ccc([N+](=O)[O-])cc1[N+](=O)[O-])=C1C(=O)NC(=O)NC1=O`, the MIC is reported as over 200 µM.

Tested on: MCF7
Experiment: Antiproliferative activity against human MCF7 cells at 30 uM after 72 hrs by MTT assay relative to control
Assay type: functional
Settings: not given
In the case of `CC(=O)C1C(=O)N(C)C(=O)N(C)C1=O`, the Activity is reported as 84.11%. Work on `O=C1NC(=O)C(=CNc2ccccc2C(=O)O)C(=O)N1` yielded an Activity of 54.9%. `CC(=O)C1C(=O)N(c2ccccc2)C(=S)N(c2ccccc2)C1=O` showed an Activity of 75.32%. For `COc1ccc(C=C2C(=O)NC(=O)NC2=O)cc1`, the Activity was 78.75%. For `COc1ccc(CC2C(=O)NC(=O)NC2=O)cc1`, the Activity was 73.12%. With `CC(NNc1ccc([N+](=O)[O-])cc1[N+](=O)[O-])=C1C(=O)NC(=O)NC1=O` the Activity was 50.01%.

Tested on: Bacillus cereus
Experiment: Antibacterial activity against Bacillus cereus ATCC 1178 after 24 hrs by broth microdilution method
Assay type: functional
Settings: ATCC 1178, 24 h
With `CC(=O)C1C(=O)N(C)C(=O)N(C)C1=O` the MIC was over 200 µM. Work on `O=C1NC(=O)C(=CNc2ccccc2C(=O)O)C(=O)N1` yielded an MIC of over 200 µM. Work on `CC(=O)C1C(=O)N(c2ccccc2)C(=S)N(c2ccccc2)C1=O` yielded an MIC of over 200 µM. With `COc1ccc(C=C2C(=O)NC(=O)NC2=O)cc1` the MIC was over 200 µM. For `COc1ccc(CC2C(=O)NC(=O)NC2=O)cc1`, the MIC was over 200 µM. For `CC(NNc1ccc([N+](=O)[O-])cc1[N+](=O)[O-])=C1C(=O)NC(=O)NC1=O`, the MIC was over 200 µM.

Tested on: Acinetobacter baumannii
Experiment: Antibacterial activity against Acinetobacter baumannii LMG 1025 after 24 hrs by broth microdilution method
Assay type: functional
Settings: LMG 1025, 24 h
In the case of `CC(=O)C1C(=O)N(C)C(=O)N(C)C1=O`, the MIC is reported as over 200 µM. Molecule `O=C1NC(=O)C(=CNc2ccccc2C(=O)O)C(=O)N1` has an MIC of over 200 µM. Work on `CC(=O)C1C(=O)N(c2ccccc2)C(=S)N(c2ccccc2)C1=O` yielded an MIC of over 200 µM. In the case of `COc1ccc(C=C2C(=O)NC(=O)NC2=O)cc1`, the MIC is reported as over 200 µM. For `COc1ccc(CC2C(=O)NC(=O)NC2=O)cc1`, the MIC was over 200 µM. `CC(NNc1ccc([N+](=O)[O-])cc1[N+](=O)[O-])=C1C(=O)NC(=O)NC1=O` showed an MIC of over 200 µM.

Tested on: NHDF
Experiment: Antiproliferative activity against NHDF at 30 uM after 72 hrs by MTT assay relative to control
Assay type: cell-based
Settings: human
For `CC(=O)C1C(=O)N(C)C(=O)N(C)C1=O`, the Activity was 94.14%. `O=C1NC(=O)C(=CNc2ccccc2C(=O)O)C(=O)N1` showed an Activity of 84.62%. With `CC(=O)C1C(=O)N(c2ccccc2)C(=S)N(c2ccccc2)C1=O` the Activity was 89.63%. Molecule `COc1ccc(C=C2C(=O)NC(=O)NC2=O)cc1` has an Activity of 71.59%. Work on `COc1ccc(CC2C(=O)NC(=O)NC2=O)cc1` yielded an Activity of 60.77%. With `CC(NNc1ccc([N+](=O)[O-])cc1[N+](=O)[O-])=C1C(=O)NC(=O)NC1=O` the Activity was 79.47%.
